Assay results reported in patent US8821891B2, “Live attenuated rotavirus vaccine for oral administration” (priority 2005, dated 2014).
Like-named read-outs stand apart in the source and are kept apart here.

Tests used:
[1] = physchem
[2] = cited from earlier work
[3] = standard acid-base titration curve, FIG. 1

Structure (SMILES)	pKa [1]	useful antacid capacity between pH 4.0 and pH 7.0 [3] [%]	also measured
O=C(O)CCCCC(=O)O [Adipic, adipic acid]	4.91	–	–
O=C(O)CCCC(=O)O [Glutaric, glutaric acid]	4.78	–	–
O=C(O)/C=C\C(=O)O [Maleic, maleic acid]	4.07	–	–
O=C(O)CC(O)C(=O)O (centres unmarked) [Malic, malic acid]	4.22	–	–
CCC(=O)O [Propinic, propionic acid]	–	–	Toxicity (LD50 oral, in rat) ([2]; oral): 2600 mg/kg
O=C(O)CCC(=O)O [Succinic, succinic acid]	4.9	–	Toxicity (LD50 oral, in rat) ([2]; in vivo, po): 2260 mg/kg
CC(=O)[O-].[Na+] [sodium acetate]	–	68.75	–
O=C([O-])CCCCC(=O)[O-].[Na+].[Na+] [sodium adipate]	–	72.50	–
O=C([O-])CC(O)(CC(=O)[O-])C(=O)[O-].[Na+].[Na+].[Na+] [sodium citrate]	–	57.70	–
O=C([O-])CC(O)C(=O)[O-].[Na+].[Na+] (centres unmarked) [sodium malate]	–	41.25	–
